Test results from article PMC9495829, “Quercetin Is a Novel Inhibitor of the Choline Kinase of Streptococcus pneumoniae” (Antibiotics, 2022).
pIC50: −log10 of the molar value.

Molecular target: T1, choline kinase of Streptococcus pneumoniae (sChoK) (Streptococcus pneumoniae, UniProt Q8DPI4)
T1 construct: gene pck
Test: colorimetric choline kinase assay (IC50); PK/LDH kinetics on purified recombinant sChoK (Ki […] +/- […], unit inferred)
Type: biochemical

T1 sequence (Q8DPI4 entry or part of it): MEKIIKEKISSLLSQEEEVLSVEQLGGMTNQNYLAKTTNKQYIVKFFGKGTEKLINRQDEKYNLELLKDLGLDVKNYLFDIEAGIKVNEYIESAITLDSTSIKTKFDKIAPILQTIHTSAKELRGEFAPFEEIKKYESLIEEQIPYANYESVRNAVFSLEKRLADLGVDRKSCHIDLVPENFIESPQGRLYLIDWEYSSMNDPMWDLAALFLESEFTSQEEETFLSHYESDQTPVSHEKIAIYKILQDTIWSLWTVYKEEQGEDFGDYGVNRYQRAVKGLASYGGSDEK

SMILES: O=c1c(O)c(-c2ccc(O)c(O)c2)oc2cc(O)cc(O)c12 [quercetin]
- pIC50: 5.21
